In the supplement of paper PMC10307832:

Legend:
Experiment in all cases: relative viability (nuclei count vs DMSO), 5 days (fraction); higher = more cells survive
[1] = compound: CC1(C)CCC(CN2CCN(c3ccc(C(=O)NS(=O)(=O)c4ccc(NCC5CCOCC5)c([N+](=O)[O-])c4)c(Oc4cnc5[nH]ccc5c4)c3)CC2)=C(c2ccc(Cl)cc2)C1 [Venetoclax] + O=C(c1cc(Cc2n[nH]c(=O)c3ccccc23)ccc1F)N1CCN(C(=O)C2CC2)CC1 [Olaparib] (partner 8 µM)
Outline: (§1)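 A single step with final 0.05% Triton X-100, 1% formaldehyde and 1 ug/ml Hoechst fixed the cells and stained nuclei 5 days after treatment. Lung cancer cell lines in 1536-well plates had been treated by pin tool the day after seeding with one drug alone or a fixed anchor-drug dose plus five library-drug doses (not always all listed) in √10 steps, and nuclei were counted on 4× images. Relative viability is the ratio of nuclei in treated wells to nuclei in vehicle wells, taken as the median of duplicate plates.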

[2] = compound: Cn1cnc2c(F)c(Nc3ccc(Br)cc3Cl)c(C(=O)NOCCO)cc21 [Selumetinib] + COc1cc2c(Oc3ccc(NC(=O)C4(C(=O)Nc5ccc(F)cc5)CC4)cc3F)ccnc2cc1OCCCN1CCOCC1 [Foretinib] (partner 0.25 µM)
Outline: as §1

[3] = compound: Cn1cnc2c(F)c(Nc3ccc(Br)cc3Cl)c(C(=O)NOCCO)cc21 [Selumetinib] + C[C@@H](Oc1cc(-c2cnn(C3CCNCC3)c2)cnc1N)c1c(Cl)ccc(F)c1Cl [Crizotinib] (partner 1 µM)
Outline: as §1

[4] = compound: CC1(C)CCC(CN2CCN(c3ccc(C(=O)NS(=O)(=O)c4ccc(NCC5CCOCC5)c([N+](=O)[O-])c4)c(Oc4cnc5[nH]ccc5c4)c3)CC2)=C(c2ccc(Cl)cc2)C1 [Venetoclax] + NC(=O)Nc1cc(-c2cccc(F)c2)sc1C(=O)N[C@H]1CCCNC1 [AZD7762] (partner 0.2 µM)
Outline: as §1

Cell Line	relative viability ([1]; first compound 0.01 µM)	relative viability ([1]; first compound 0.03162 µM)	relative viability ([1]; first compound 0.1 µM)	relative viability ([1]; first compound 0.3162 µM)	relative viability ([1]; first compound 1 µM)	relative viability ([2]; first compound 0.02 µM)	relative viability ([2]; first compound 0.06325 µM)	relative viability ([2]; first compound 0.2 µM)	relative viability ([2]; first compound 0.6325 µM)	relative viability ([3]; first compound 0.02 µM)	relative viability ([3]; first compound 0.06325 µM)	relative viability ([3]; first compound 0.2 µM)	relative viability ([3]; first compound 0.6325 µM)	relative viability ([4]; first compound 0.01 µM)	relative viability ([4]; first compound 0.03162 µM)	relative viability ([4]; first compound 0.1 µM)	relative viability ([4]; first compound 0.3162 µM)	relative viability ([4]; first compound 1 µM)
EBC-1	0.636	0.77	0.662	0.647	0.662	0.0932	0.0928	0.114	0.109	0.179	0.16	0.175	0.147	–	–	–	–	–
EKVX	0.93	0.908	0.817	0.855	0.819	0.724	0.675	0.517	0.568	0.909	0.889	0.614	0.639	0.698	0.766	0.743	0.695	0.671
EMC-BAC-2	0.503	0.554	0.5	0.497	0.471	0.882	0.972	0.85	0.875	0.754	0.719	0.778	0.834	1.11	1.15	1.07	1.08	1.03
EPLC-272H	0.63	0.697	0.803	0.786	0.83	0.593	0.467	0.367	0.333	0.877	0.846	0.707	0.731	0.192	0.188	0.229	0.318	0.225
H3255	0.626	0.576	0.545	0.597	0.566	0.867	0.921	0.457	0.739	0.879	0.96	0.88	0.802	0.875	0.999	0.944	0.901	0.782
HARA	0.803	0.993	–	0.814	0.822	0.905	0.726	0.71	0.592	1.02	1.02	0.876	0.602	0.299	0.214	–	0.25	0.285
HCC-15	0.607	0.754	0.75	0.68	0.668	0.777	0.637	0.439	0.293	0.669	0.498	0.395	0.256	1.29	1.28	1.15	1.16	1.36
HCC-44	1.05	1.01	0.919	0.971	0.983	–	–	–	–	0.883	0.753	0.876	0.876	1.01	0.99	1.04	0.929	0.924
HCC-78	0.718	0.78	0.879	0.871	0.686	0.516	0.435	0.401	0.449	0.276	0.306	0.281	0.299	0.667	0.818	0.738	0.577	0.539
